Values after ≈ are worked out from the molar mass of the structure shown. Values joined by “and” are separate entries in the source; they are usually repeats but may differ in a detail not shown here. Identical values can stand only once.
Tests used:
Assay in all cases: ≥ marks a high value that may be exact or a test limit, other limits are often not marked, values filed in µg/mL are converted to µM
[1] = test system: Staphylococcus aureus FDA 209P
Acinetobacter baumannii = test system: Acinetobacter baumannii
[2] = test system: Staphylococcus epidermidis ATCC 12228
Shigella sonnei EW-33 = test system: Shigella sonnei EW-33
Enterococcus faecium = test system: Enterococcus faecium
[3] = test system: Vibrio parahaemolyticus CCRC 10806
[4] = test system: Klebsiella pneumoniae CCRC 10694
Escherichia coli JM109 = test system: Escherichia coli JM109
Staphylococcus xylosus = test system: Staphylococcus xylosus
[5] = test system: Enterococcus faecalis LS-101
Salmonella enterica = test system: Salmonella enterica
[6] = test system: Lactobacillus delbrueckii subsp. bulgaricus
[7] = test system: Bifidobacterium adolescentis
[8] = test system: Staphylococcus aureus ATCC 12600
Shigella flexneri EW-10 = test system: Shigella flexneri EW-10
[9] = test system: Escherichia coli ATCC 11775
[10] = test system: Escherichia coli NIHJ JC-2
[11] = test system: Salmonella typhimurium CCRC 12947
[12] = test system: Enterococcus faecium EFMY-28
Klebsiella pneumoniae = test system: Klebsiella pneumoniae
[13] = test system: Staphylococcus aureus 1840
Escherichia coli BL21 = test system: Escherichia coli BL21
[14] = test system: Candida albicans ATCC 10231
Staphylococcus aureus = test system: Staphylococcus aureus
[15] = test system: Bacillus subtilis PCI 219
Citrobacter koseri = test system: Citrobacter koseri
[16] = test system: Staphylococcus aureus CCRC 12652
Enterococcus faecalis = test system: Enterococcus faecalis
Botrytis cinerea = test system: Botrytis cinerea
[17] = test system: Staphylococcus aureus CCRC 15211
[18] = test system: Staphylococcus aureus NCTC 8325
[19] = test system: Enterobacter cloacae NHTCC 53001
[20] = test system: Pseudomonas aeruginosa ATCC 27853
[21] = test system: Klebsiella pneumoniae KK3 9904
[22] = test system: Escherichia coli ATCC 25922
[23] = test system: Candida albicans ATCC 90028
[24] = test system: Staphylococcus aureus ATCC 25923
Escherichia coli ESBL = test system: Escherichia coli ESBL
[25] = test system: Pseudomonas aeruginosa CUN 4158-02
[26] = test system: Acinetobacter baumannii ATCC 19606
[27] = test system: Bordetella bronchiseptica CUN 11844-99
[28] = test system: Staphylococcus aureus CUN 3792-99
[29] = test system: Staphylococcus aureus ATCC 43300
[30] = test system: Stenotrophomonas maltophilia CUN 3998-00
Vibrio cholerae CUN 09 = test system: Vibrio cholerae CUN 09
Enterococcus sp. S13 = test system: Enterococcus sp. S13
[31] = test system: Salmonella enterica AB2010185
[32] = test system: Micrococcus luteus AB2010179
[33] = test system: Escherichia coli DH5alpha
[34] = test system: Staphylococcus aureus AB94004
[35] = test system: Klebsiella oxytoca AB2010143
Pseudomonas putida = test system: Pseudomonas putida
[36] = test system: Staphylococcus aureus 16472
[37] = test system: Enterobacter cloacae AB2010162
[38] = test system: Candida tropicalis AY91009
[39] = test system: Bacillus magaterium AB90008

CC[C@H](C)[C@H](NC(=O)[C@H](CO)NC(=O)[C@H](CCCCN)NC(=O)[C@H](CC(C)C)NC(=O)[C@H](CCCCN)NC(=O)[C@@H](N)CC(C)C)C(=O)N[C@H](C(=O)N[C@@H](CO)C(=O)N[C@@H](Cc1c[nH]c2ccccc12)C(=O)N[C@@H](C)C(=O)N[C@@H](CCCCN)C(=O)N[C@@H](CCCCN)C(=O)N[C@H](C(=O)N[C@@H](CC(C)C)C(N)=O)C(C)C)C(C)C [LKLKSIVSWAKKVL]
MIC [1]: 7.75 µM (≈ 12.5 µg/mL) | MIC (Acinetobacter baumannii): 1.05 µM and 1.24 µM | MIC [2]: 3.87 µM (≈ 6.25 µg/mL) | MIC (Shigella sonnei EW-33): 3.87 µM (≈ 6.25 µg/mL) | MIC (Enterococcus faecium): ≥ 79.4 µM | MIC [3]: 7.01 µM (≈ 11.3 µg/mL) | MIC [4]: ≥ 39.7 µM | MIC (Escherichia coli JM109): 0.62 µM (≈ 0.999 µg/mL) | MIC (Staphylococcus xylosus): 0.31 µM (≈ 0.5 µg/mL) | MIC [5]: 1.94 µM (≈ 3.13 µg/mL) | MIC (Salmonella enterica): 19.8 µM (≈ 32 µg/mL) | MIC [6]: ≥ 79.4 µM | MIC [7]: ≥ 79.4 µM | MIC [8]: 3.1 µM (≈ 5 µg/mL) | MIC (Shigella flexneri EW-10): 3.87 µM (≈ 6.25 µg/mL) | MIC [9]: 31 µM (≈ 50 µg/mL) | MIC [10]: 7.75 µM (≈ 12.5 µg/mL) | MIC [11]: 19.8 µM (≈ 32 µg/mL) | MIC [12]: 12.5 µM (≈ 20.2 µg/mL) | MIC (Klebsiella pneumoniae): > 15.5 µM | MIC [13]: 15.5 µM (≈ 25 µg/mL) | MIC (Escherichia coli BL21): 3.51 µM (≈ 5.65 µg/mL) | MIC [14]: 15.5 µM (≈ 25 µg/mL) | MIC (Staphylococcus aureus): 8.25 µM (≈ 13.3 µg/mL) | MIC [15]: 1.94 µM (≈ 3.13 µg/mL) | MIC (Citrobacter koseri): 1.75 µM (≈ 2.83 µg/mL) | MIC [16]: 9.92 µM (≈ 16 µg/mL) | MIC (Enterococcus faecalis): 6.63 µM (≈ 10.7 µg/mL) | MIC (Botrytis cinerea): 4.96 µM (≈ 8 µg/mL) | MIC [17]: 14 µM (≈ 22.6 µg/mL)

CC[C@H](C)[C@@H]1NC(=O)[C@H](CCCCN)NC(=O)[C@@H](NC(=O)[C@H](CCCCN)NC(=O)[C@H](C)NC(=O)[C@H](CCC(N)=O)NC(=O)[C@H](CC(=O)O)NC(=O)[C@H](CC(C)C)NC(=O)[C@H](CC(C)C)NC(=O)[C@H](CO)NC(=O)CNC(=O)CNC(=O)[C@@H](NC(=O)[C@H](CC(N)=O)NC(=O)[C@H](CCCCN)NC(=O)[C@H](Cc2ccccc2)NC(=O)[C@@H](NC(=O)[C@H](Cc2cnc[nH]2)NC(=O)[C@H](CCCCN)NC(=O)CNC(=O)[C@@H](NC(=O)[C@@H](NC(=O)[C@H](CCCCN)NC(=O)[C@H](CC(C)C)NC(=O)[C@@H](NC(=O)CNC(=O)[C@H](CCCCN)NC(=O)[C@H](CC(C)C)NC(=O)[C@@H](NC(=O)[C@H](CO)NC(=O)[C@H](CC(C)C)NC(=O)[C@H](CC(C)C)NC(=O)CN)C(C)C)C(C)C)[C@@H](C)O)[C@@H](C)O)[C@@H](C)CC)C(C)C)CSSC[C@@H](C(=O)O)NC(=O)[C@H](CCC(N)=O)NC(=O)CNC(=O)[C@H](CO)NC1=O [GLLSVLKGVLKTTGKHIFKNVGGSLLDQAKCKISGQC]
MIC [18]: 25 µM (≈ 96 µg/mL) | MIC [19]: 3 µM (≈ 11.5 µg/mL) | MIC [20]: 3 µM (≈ 11.5 µg/mL) | MIC [21]: 6 µM (≈ 23 µg/mL) | MIC [22]: 3 µM (≈ 11.5 µg/mL) | MIC [23]: ≥ 100 µM

N=C(N)NCCC[C@H](NC(=O)CNC(=O)[C@H](CCCCN)NC(=O)[C@H](Cc1ccccc1)NC(=O)[C@H](CCCCN)NC(=O)[C@H](Cc1c[nH]c2ccccc12)NC(=O)[C@H](CCCNC(=N)N)NC(=O)[C@H](Cc1ccccc1)NC(=O)[C@H](CCCCN)NC(=O)[C@H](CCCCN)NC(=O)[C@H](Cc1ccc(O)cc1)NC(=O)[C@H](CCCNC(=N)N)NC(=O)[C@H](CCCNC(=N)N)NC(=O)CN)C(=O)N[C@@H](Cc1c[nH]c2ccccc12)C(=O)N[C@@H](Cc1ccccc1)C(=O)N[C@@H](Cc1c[nH]c2ccccc12)C(=O)N[C@@H](Cc1ccccc1)C(=O)NCC(=O)O [GRRYKKFRWKFKGRWFWFG]
MIC [24]: 3.03 µM (≈ 8 µg/mL) | MIC (Escherichia coli ESBL): 6.07 µM (≈ 16 µg/mL) | MIC [25]: 12.1 µM (≈ 32 µg/mL) | MIC [26]: 6.07 µM (≈ 16 µg/mL) | MIC [27]: ≥ 48.5 µM | MIC [20]: 6.07 µM (≈ 16 µg/mL) | MIC [28]: 3.03 µM (≈ 8 µg/mL) | MIC [29]: 3.03 µM (≈ 8 µg/mL) | MIC [30]: 12.1 µM (≈ 32 µg/mL) | MIC (Klebsiella pneumoniae): 12.1 µM (≈ 32 µg/mL) | MIC [22]: 6.07 µM (≈ 16 µg/mL) | MIC (Vibrio cholerae CUN 09): 6.07 µM (≈ 16 µg/mL)

CC[C@H](C)[C@H](N)C(=O)N[C@@H](Cc1ccccc1)C(=O)NCC(=O)N[C@@H](C)C(=O)N[C@H](C(=O)N[C@@H](Cc1c[nH]c2ccccc12)C(=O)N[C@@H](CCCCN)C(=O)NCC(=O)N[C@H](C(=O)N[C@@H](CO)C(=O)N[C@@H](CO)C(=O)N[C@@H](CC(C)C)C(=O)N[C@@H](CC(C)C)C(=O)O)[C@@H](C)CC)[C@@H](C)CC [IFGAIWKGISSLL]
MIC (Enterococcus sp. S13): ≥ 36 µM | MIC [31]: ≥ 68 µM | MIC [32]: 18 µM (≈ 25.3 µg/mL) | MIC [33]: ≥ 48 µM | MIC [34]: ≥ 48 µM | MIC [35]: ≥ 87 µM | MIC (Pseudomonas putida): ≥ 87 µM | MIC [36]: 28 µM (≈ 39.3 µg/mL) | MIC [37]: ≥ 87 µM | MIC [38]: 16 µM (≈ 22.5 µg/mL) | MIC [39]: ≥ 36 µM

Source: DBAASP
